Experimental data taken from patent US20060276498A1 (Wyeth, priority 2005, published 2006).
pIC50: −log10 of the molar value.

Biological target: T1, human Cot/Tpl2 kinase (Homo sapiens, UniProt P41279)
T1 construct: human Cot/Tpl2 kinase construct encoding residues 30-398; 6His (N); made in house; host or cells: Sf9 insect cells (baculovirus system, BD Biosciences)
Assay: Tpl2/Cot kinase assay, GST-MEK1 phosphorylation detected by ELISA (DELFIA Eu)
Format: biochemical
Description: Sf9 cells expressing the kinase were lysed in 50 mM NaPhosphate pH=8; 300 mM NaCl; 5 mM imidazole; 0.1 mM EGTA; 25 mM beta-glycerophosphate; 1% TX-100, 1% glycerol; 6 mM beta-mercaptoethanol and protease inhibitors. The lysate was clarified by centrifugation and was loaded onto a Ni-Sepharose column. The column was washed with 50 mM NaPhosphate pH=8; 300 mM NaCl; 15 mM imidazole; 1% glycerol; and 6 mM beta-mercaptoethanol. His-Tpl2 was eluted with 50 mM NaPhosphate pH=8; 300 mM NaCl; 250 mM imidazole; 1% glycerol; and 6 mM beta-mercaptoethanol. The eluted protein was further purified by size exclusion chromatography. Fractions corresponding to monomeric Tpl2 were then used in the assay.
Tpl2/Cot activity was directly assayed using GST-MEK1 as a substrate. GST-MEK1 phosphorylation on serine residues 217 and 221 was detected by ELISA. 0.4 nM Tpl2 was incubated with 35 nM GST-MEK1 in a kinase reaction buffer containing 20 mM MOPS pH=7.2; 50 uM ATP; 20 mM MgCl2; 1 mM DTT; 25 mM β-glycerophosphate; 5 mM EGTA; and 1 mM sodium orthovanadate for 1 h at 30° C. The compounds of the inventions solubilized in 100% DMSO were pre-diluted in assay buffer so that the final concentration of DMSO in the reaction was 1%. The kinase reaction was carried out in 100 ul volume on 96 well plates. The kinase reaction was then stopped with the addition of 100 mM EDTA. […] After a 1 hour incubation at room temperature, the detection plate was washed 4 times with TBST (TBS+0.05% Tween 20) and then incubated for another hour at room temperature with anti phospho-MEK1 antibody (Cell Signaling) 1:1000 in 10 mM MOPS 7.5; 150 mM NaCl; 0.05% Tween 20; 0.1% Gelatin; 0.02% NaN3; and 1% BSA. The detection plate was washed again and incubated for 30 min with DELFIA Europium (Eu) labeled goat anti-rabbit IgG (Perkin-Elmer), 1:4000 in the same buffer used for the primary incubation. After a final wash, Eu detection solution was added to each well and the Eu signal was measured in a Wallac Victor^2 Multilabel Counter. IC50 calculations were preformed using the XLfit software package (IDBS, Guildford, UK).

[1] = Table 1, 0.4 nM Tpl2, 35 nM GST-MEK1, 50 uM ATP, 1 h at 30° C.
[2] = Table 2, additional representative compounds

T1 sequence (P41279 30-398): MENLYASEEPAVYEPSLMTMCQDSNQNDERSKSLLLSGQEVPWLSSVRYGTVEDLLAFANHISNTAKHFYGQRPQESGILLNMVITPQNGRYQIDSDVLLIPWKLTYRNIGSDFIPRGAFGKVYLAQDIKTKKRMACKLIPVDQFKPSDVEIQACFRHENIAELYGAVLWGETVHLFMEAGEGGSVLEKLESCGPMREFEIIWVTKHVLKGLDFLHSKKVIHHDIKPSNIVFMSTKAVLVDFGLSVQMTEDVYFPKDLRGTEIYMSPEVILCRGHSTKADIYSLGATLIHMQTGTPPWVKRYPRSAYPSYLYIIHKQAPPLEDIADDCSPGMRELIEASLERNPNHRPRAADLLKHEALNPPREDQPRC

Row | SMILES | pIC50 [1] | pIC50 [2]
1 | C[C@H](Nc1cc2c(Nc3ccc(F)c(Cl)c3)c(C#N)cnc2cn1)[C@H](O)c1ccccc1 [Example 54, 4-[(3-chloro-4-fluorophenyl)amino]-6-{[(1S, 2R)-2-hydroxy-1-methyl-2-phenylethyl]amino}-1,7-naphthyridine-3-carbonitrile] | 5.89 | 
2 | N#Cc1cnc2cnc(NCCN3CCOCC3)cc2c1Nc1ccc(Cc2ccccc2)cc1 [Example 7, 4-(4-benzylphenylamino)-6-(2-morpholinoethylamino)-1,7-naphthyridine-3-carbonitrile] | 8.10 | 
3 | CCN1CCC[C@H]1CNc1cc2c(NC3CCCC3)c(C#N)cnc2cn1 [Example 129, 4-(cyclopentylamino)-6-({[(2S)-1-ethylpyrrolidin-2-yl]methyl}amino)-1,7-naphthyridine-3-carbonitrile] |  | 5.55
4 | N#Cc1cnc2cnc(F)cc2c1Nc1ccc(Oc2ccccc2)cc1 [Example 99, 6-Fluoro-4-(4-phenoxy-phenylamino)-[1,7]naphthyridine-3-carbonitrile] |  | 4.70
5 | N#Cc1cnc2cnc(NCCN3CCOCC3)cc2c1Nc1cccc(C(=O)O)c1 [Example 84, 3-(3-cyano-6-(2-morpholinoethylamino)-1,7-naphthyridin-4-ylamino)benzoic acid] | < 5.00 | 
6 | COc1ccc(Nc2c(C#N)cnc3cnc(NCCN4CCOCC4)cc23)cc1 [Example 31, 4-(4-methoxyphenylamino)-6-(2-morpholinoethylamino)-1,7-naphthyridine-3-carbonitrile] | < 4.40 | 
7 | CN(C)CCNc1cc2c(Nc3ccc(Cc4ccccc4)cc3)c(C#N)cnc2cn1 [Example 108, 4-[(4-benzylphenyl)amino]-6-{[2-(dimethylamino)ethyl]amino}-1,7-naphthyridine-3-carbonitrile] |  | < 5.00
8 | N#Cc1cnc2cnc(NCCCN3CCOCC3)cc2c1Nc1ccc(F)c(Cl)c1 [Example 49, 4-[(3-chloro-4-fluorophenyl)amino]-6-[(3-morpholin-4-ylpropyl)amino]-1,7-naphthyridine-3-carbonitrile] | 5.52 | 
9 | C[C@H](O)CNc1cc2c(Nc3ccc(F)c(Cl)c3)c(C#N)cnc2cn1 [Example 56, 4-[(3-chloro-4-fluorophenyl)amino]-6-{[(2S)-2-hydroxypropyl]amino}-1,7-naphthyridine-3-carbonitrile] | 5.44 | 
10 | CN(c1ccc(F)c(Cl)c1)c1c(C#N)cnc2cnc(F)cc12 [Example 107, 4-[(3-chloro-4-fluorophenyl)(methyl)amino]-6-fluoro-1,7-naphthyridine-3-carbonitrile] |  | < 5.00
11 | N#Cc1cnc2cnc(NCCN3CCOCC3)cc2c1Nc1ccc(F)c(F)c1 [Example 13, 4-(3,4-difluorophenylamino)-6-(2-morpholinoethylamino)-1,7-naphthryidine-3-carbonitrile] | 5.44 | 
12 | CC(C)c1ccc(Nc2c(C#N)cnc3cnc(NCCN4CCOCC4)cc23)cc1 [Example 43, 4-[(4-isopropylphenyl)amino]-6-[(2-morpholin-4-ylethyl)amino]-1,7-naphthyridine-3-carbonitrile] | < 4.40 | 
13 | N#Cc1cnc2cnc(NCCN3CCOCC3)cc2c1Nc1cccc(I)c1 [Example 78, 4-(3-iodophenylamino)-6-(2-morpholinoethylamino)-1,7-naphthyridine-3-carbonitrile] | 5.15 | 
14 | C#CC1(Nc2c(C#N)cnc3cnc(F)cc23)CCCCC1 [Example 142, 4-[(1-ethynylcyclohexyl)amino]-6-fluoro-1,7-naphthyridine-3-carbonitrile] |  | 4.55
15 | N#Cc1cnc2cnc(NCc3c(N)cccc3F)cc2c1Nc1ccc(F)c(Cl)c1 [Example 61, 6-[(2-amino-6-fluorobenzyl)amino]-4-[(3-chloro-4-fluorophenyl)amino]-1,7-naphthyridine-3-carbonitrile] | 4.98 | 
16 | N#Cc1cnc2cnc(NCCN3CCOCC3)cc2c1Nc1cccc(F)c1 [Example 24, 4-(3-fluorophenylamino)-6-(2-morpholinoethylamino)-1,7-naphthyridine-3-carbonitrile] | 5.95 | 
17 | N#Cc1cnc2cnc(N[C@H]3CCCc4ccccc43)cc2c1Nc1ccc(F)c(Cl)c1 [Example 71] | 5.41 | 
18 | Cn1nc(C(C)(C)C)cc1Nc1c(C#N)cnc2ccc(N)cc12 [Example 139, 6-amino-4-[(3-tert-butyl-1-methyl-1H-pyrazol-5-yl)amino]quinoline-3-carbonitrile] |  | 6.57

Results, then the molecule that gave them:

Row | pIC50 [1] | pIC50 [2] | SMILES
19 |  | < 4.40 | N#Cc1cnc2cnc(NCc3cccnc3)cc2c1NC1CCNCC1 [Example 116, 4-(piperidin-4-ylamino)-6-[(pyridin-3-ylmethyl)amino]-1,7-naphthyridine-3-carbonitrile]
20 | 5.39 |  | N#Cc1cnc2cnc(NCc3cccnc3)cc2c1Nc1cc(Cl)cc(Cl)c1 [Example 69, 4-[(3,5-dichlorophenyl)amino]-6-[(pyridin-3-ylmethyl)amino]-1,7-naphthyridine-3-carbonitrile]
21 |  | 6.80 | N#Cc1cnc2cnc(NCc3cccnc3)cc2c1NC1CCCCCC1 [Example 113, 4-(cycloheptylamino)-6-[(pyridin-3-ylmethyl)amino]-1,7-naphthyridine-3-carbonitrile]
22 | < 4.40 |  | N#Cc1cnc2cnc(NCc3cccnc3)cc2c1Nc1cccc(OC(F)(F)F)c1 [Example 32, 6-(pyridin-3-ylmethylamino)-4-(3-(trifluoromethoxy)phenylamino)-1,7-naphthyridine-3-carbonitrile]
23 | 7.00 |  | N#Cc1cnc2cnc(NCc3ccccc3)cc2c1Nc1ccc(F)c(Cl)c1 [Example 47, 6-(benzylamino)-4-[(3-chloro-4-fluorophenyl)amino]-1,7-naphthyridine-3-carbonitrile]
24 | < 4.40 |  | COc1ccc(CNc2cc3c(Nc4cccc(C(C)C)c4)c(C#N)cnc3cn2)cc1 [Example 38, 4-[(3-isopropylphenyl)amino]-6-[(4-methoxybenzyl)amino]-1,7-naphthyridine-3-carbonitrile]
25 |  | 6.20 | CC(C)(C)Nc1c(C#N)cnc2cnc(NCc3cccnc3)cc12 [Example 110, 4-(tert-butylamino)-6-[(pyridin-3-ylmethyl)amino]-1,7-naphthyridine-3-carbonitrile]
26 | 7.77 |  | N#Cc1cnc2cnc(NCc3cccnc3)cc2c1Nc1ccc(Cc2ccccc2)cc1 [Example 14, 4-(4-benzylphenylamino)-6-(pyridin-3-ylmethylamino)-1,7-naphthryidine-3-carbonitrile]
27 | 6.54 |  | N#Cc1cnc2cnc(NCc3cccnc3)cc2c1Nc1ccc(F)c(F)c1 [Example 20, 4-(3,4-difluorophenylamino)-6-(pyridin-3-ylmethylamino)-1,7-naphthyridine-3-carbonitrile]
28 |  | < 4.40 | CCC(C)(C)Nc1c(C#N)cnc2cnc(F)cc12 [Example 141, 4-[(1,1-dimethylpropyl)amino]-6-fluoro-1,7-naphthyridine-3-carbonitrile]
29 |  | 6.37 | N#Cc1cnc2cnc(NCc3cccc(Br)c3)cc2c1Nc1ccc(F)c(Cl)c1 [Example 121, 6-[(3-bromobenzyl)amino]-4-[(3-chloro-4-fluorophenyl)amino]-1,7-naphthyridine-3-carbonitrile]
30 | < 4.40 |  | CCC(C)(C)Nc1cc2c(Nc3ccc(F)c(Cl)c3)c(C#N)cnc2cn1 [Example 91, 4-(3-chloro-4-fluorophenylamino)-6-(tert-pentylamino)-1,7-naphthyridine-3-carbonitrile]
